We go through 6 molecules from patent US11339171B2, “MDM2 inhibitors” (Gan & Lee Pharmaceuticals, priority 2017, dated 2022).

“And” between values parts separate entries of the source, which are not always exact repeats. Identical values can stand only once. Like-named read-outs stand apart in the source and are kept apart here.

The target of one series is T1, MDM2 (Homo sapiens, UniProt Q00987).
T1 construct: made in house
The series is described as follows: Inhibition test of MDM2-P53 (GST-MDM2, Biotin-P53, Anti-GST-Tb, SA-XL665). The settings on record: labels are Example numbers; the compounds with S-configuration are meant. The format is binding. The protocol: Experimental purpose: To determine the inhibitory activities of the compounds of the present invention on MDM2.
The present experiment uses the following assay methods/instruments/reagents:
Buffer: 1×PBS+0.1% BSA+5 mM DTT; MDM2 Buffer: Buffer+1 mM AEBSF
GST-MDM2: The final concentration is 4 nM, and it is required to formulate a 20 nM (5×) solution. A mother liquor is diluted by 3500 folds, wherein the mother liquor is 10-fold diluted first, and then 350-fold diluted.
Anti-GST-Tb: The final concentration is 2×, and a mother liquor is diluted by 50 folds.
MIX: GST-MDM2, Biotin-P53, SA-XL665 and Anti-GST-Tb were mixed according to a ratio of 4:4:5:5.
Sample: Preparation of a sample (10 mM in DMSO) solution: a. 3 μL sample+7 μL DMSO+20 μL DMSO were formulated to give an initial concentration of 1 mM and mixed well; b. in plate 1, twelve 5-fold serial dilutions (sequentially prepared by adding 10 μL of the last sample to 40 μL DMSO) were prepared and mixed well, individually; c. plate 2 was taken, 45 μL of Buffer was added to each well, and 5 μL of dilution at each concentration was taken from plate 1 and added to the corresponding well in plate 2 (the concentration in well 1 was 100 μM), and mixed well.
1. 18 μL of MIX was added to a 384-well plate, and centrifugation was performed at 4500 rpm for 5 min.
2. 2 μL of sample was added correspondingly to each well, the resultant was centrifuged at 25° C. and 4500 rpm for 5 min, and shaked at 25° C. for 90 min on a shaker.
Readings were obtained from the Microplate reader, and data was processed by Graphpad Prism 6.0.

A short description of series [1]: Pharmacokinetics in ICR mice after intravenous and intragastric administration. The format is in vivo. The settings on record: for MRT last: read-out: MRT(0-t); for MRT inf: read-out: MRT(0-∞); for Tmax: read-out: Tmax; for Vd: read-out: Vz; for half-life: read-out: t1/2 (converted). How it is done: Experimental Example 3 Determination of the Pharmacokinetics of the Mdm2 Inhibitors of the Present Invention in Mice
ICR mice were used as the test animals, and the concentrations of the drugs in plasma of mice at different time points after intravenous administration and intragastric administration of the representative compounds were measured by a LC/MS/MS method, so as to study the pharmacokinetic behavior of the compounds of the present invention in mice and evaluate the pharmacokinetic characteristics thereof.
Some compounds prepared in Examples 1-180 of the present invention.
The control drug HDM201 was prepared by the method disclosed in patent No. CN104203952A.
Healthy adult ICR mice, male, 6-9 weeks old, weighing 20-30 g, purchased from Shanghai Xipuer-Bikai Laboratory Animal Co., Ltd., Animal Production License No.: SCXK (HU) 2013-0016
3.2.3 Preparation of Test Drugs
Intragastric or intravenous administration: an appropriate amount of sample was weighed, dissolved in 5% DMSO+40% PEG400+55% (10% HP-β-CD in Saline) to prepare a 0.5 mg/ml solution for intragastric or intravenous administration.
3.2.4 Administration of Test Drugs
Intravenous administration: for each test compound, 3 male ICR mice were administered intravenously at a dose of 2 mg/kg and an administration volume of […] after fasting overnight.
Intragastric administration: for each test compound, 3 male ICR mice were administered intragastrically at a dose of 5 mg/kg and an administration volume of […] after fasting overnight.
3.3 Experimental Operation
The collected plasma was stored at −80° C. before analysis. The plasma sample was analyzed by LC-MS/MS, and the sample was pretreated by protein precipitation method. The linear range of sample analysis was 1 to 2000 ng/ml. The lowest quantification limit was 1 ng/mL. WinNonlin (Pharsight, USA) was used to calculate the following pharmacokinetic parameters: area under the curve AUC(0-t), area under the curve AUC(0-∞), half-life t1/2, retention time MRT(0-∞), blood drug concentration Cmax, time taken to reach the peak blood drug concentration Tmax, bioavailability F, apparent volume of distribution Vz, and clearance rate CL.

Where [2] appears, read: IV 2 mg/kg, ICR mice, individual animal, 2 mg/kg.
The mark [3] stands for this setting: PO 5 mg/kg, ICR mice, individual animal, 5 mg/kg.
The mark [4] stands for this setting: male, ICR, mouse, plasma, iv, 2 mg/kg, IV 2 mg/kg, ICR mice, Mean.
[5] abbreviates: male, ICR, mouse, plasma, iv, 2 mg/kg, IV 2 mg/kg, ICR mice, individual animal.
Setting [6] is: male, ICR, mouse, plasma, po, 5 mg/kg, PO 5 mg/kg, ICR mice, Mean.
Where [7] appears, read: male, ICR, mouse, plasma, po, 5 mg/kg, PO 5 mg/kg, ICR mice, individual animal.

T1 sequence (Q00987 whole entry): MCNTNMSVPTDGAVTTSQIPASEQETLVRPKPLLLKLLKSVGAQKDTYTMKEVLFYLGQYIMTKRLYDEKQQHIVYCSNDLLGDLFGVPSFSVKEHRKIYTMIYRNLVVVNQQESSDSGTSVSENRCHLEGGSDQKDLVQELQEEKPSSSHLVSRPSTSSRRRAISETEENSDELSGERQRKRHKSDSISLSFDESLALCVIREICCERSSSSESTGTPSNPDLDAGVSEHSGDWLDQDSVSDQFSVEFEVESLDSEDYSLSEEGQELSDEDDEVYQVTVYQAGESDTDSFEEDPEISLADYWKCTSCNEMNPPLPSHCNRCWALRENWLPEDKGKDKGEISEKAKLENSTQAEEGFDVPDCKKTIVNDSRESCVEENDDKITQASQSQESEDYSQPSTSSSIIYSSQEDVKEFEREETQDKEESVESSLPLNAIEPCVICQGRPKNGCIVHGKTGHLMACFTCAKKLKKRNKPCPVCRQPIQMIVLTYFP

Turning to `COc1ccncc1-c1nc2c(n1C(C)C)C1(C(=O)Nc3cc(Cl)ccc31)N(c1cc(Cl)ccc1C)C2=O` (stereo not drawn) [Example 18, 6-chloro-5′-(5-chloro-2-methylphenyl)-3′-isopropyl-2′-(4-methoxypyridin-3-yl)-3′H-spiro[dihydroindole-3,4′-pyrrolo[3,4-d]imidazole]-2,6′(5′H)-dione], on MDM2, the “inhibitory effect on MDM2 compared with positive control compound HDM201” value was “better”.

As for `CNC(=O)c1ccc(OC)c(-c2nc3c(n2C(C)C)C2(C(=O)Nc4cc(Cl)ccc42)N(c2cc(Cl)ccc2C)C3=O)c1` (stereo not drawn) [Example 21, 3-(6-chloro-5′-(5-chloro-2-methylphenyl)-3′-isopropyl-2,6′-dioxo-5′,6′-dihydro-3′H-spiro[dihydroindole-3,4′-pyrrolo[3,4-d]imidazole]-2′-yl)-4-methoxy-N-methylbenzamide], the “inhibitory effect on MDM2 compared with positive control compound HDM201” value against MDM2 is on record as “better”.

Regarding `COc1ccc(C(N)=O)cc1-c1nc2c(n1C(C)C)C1(C(=O)Nc3cc(Cl)ccc31)N(c1cc(Cl)ccc1C)C2=O` (stereo not drawn) [Example 29, 3-(6-chloro-5′-(5-chloro-2-methylphenyl)-3′-isopropyl-2,6′-dioxo-5′,6′-dihydro-3′H-spiro[dihydroindole-3,4′-pyrrolo[3,4-d]imidazole]-2′-yl)-4-methoxybenzamide], the “inhibitory effect on MDM2 compared with positive control compound HDM201” value against MDM2 is “better”.

As for `COc1ncc(-c2nc3c(n2C(C)C)C2(C(=O)Nc4cc(Cl)ccc42)N(c2cc(Cl)ccc2F)C3=O)c(OC)n1` (stereo not drawn) [Example 44, 6-chloro-5′-(5-chloro-2-fluorophenyl)-2′-(2,4-dimethoxypyrimidin-5-yl)-3′-isopropyl-3′H-spiro[dihydroindole-3,4′-pyrrolo[3,4-d]imidazole]-2,6′(5′H)-dione], the “inhibitory effect on MDM2 compared with positive control compound HDM201” value on MDM2 is “better”.

For the molecule `COc1ncc(-c2nc3c(n2C(C)C)C2(C(=O)Nc4cc(Cl)ccc42)N(c2ccc(OC)c(Cl)c2)C3=O)c(OC)n1` (stereo not drawn) [Example 48, 6-chloro-5′-(3-chloro-4-methoxyphenyl)-2′-(2,4-dimethoxypyrimidin-5-yl)-3′-isopropyl-3′H-spiro[dihydroindole-3,4′-pyrrolo[3,4-d]imidazole]-2,6′(5′H)-dione], the “inhibitory effect on MDM2 compared with positive control compound HDM201” value against MDM2 is recorded as “better”.

The Cmax is the peak of the concentration-time curve. Usually Vz stands for a proportionality between amount in the body and measured concentration, not a real space. Low readings indicate little distribution into tissue, high ones wide distribution into tissue. Broadly, the AUC(0-inf) is the area under the concentration-time curve extrapolated to infinity. A higher AUC(0-inf) goes with more exposure. By clearance is commonly meant a measure of how efficiently the substance is removed, as volume per time. By Tmax is commonly meant the time at which the peak concentration occurs. The bioavailability is the share of a dose that reaches the circulation, judged against a reference dose that is usually intravenous. As to `COc1ncc(-c2nc3c(n2C(C)C)[C@H](c2ccc(Cl)cc2)N(c2cc(Cl)cn(C)c2=O)C3=O)c(OC)n1` [HDM201, reference compound], in series [1] (setting [2]), the “AUC(0-t)” value is 520.23 ng·h/mL and 622.13 ng·h/mL; the “AUC(0-∞)” value is 600.29 ng·h/mL and 713.62 ng·h/mL; the CL was 55.5285 mL/min/kg and 46.7105 mL/min/kg; the Cmax is 459.85 ng/mL and 585.03 ng/mL. Moreover, in series [1] (setting [2]), the “MRT(0-t)” value was 40.8 min and 39.6 min; the “MRT(0-∞)” value is 58.8 min and 57.6 min; the distribution volume (Vz) is 3.23181 L/kg and 2.7173 L/kg; the t1/2 was 40.2 min. Further, the “F*” value in series [1] (PO 5 mg/kg vs IV 2 mg/kg, ICR mice) is listed as 78.76%. In series [1] (setting [3]), the “AUC(0-t)” value is 797.19 ng·h/mL and 1522.78 ng·h/mL; the “AUC(0-∞)” value was 818.45 ng·h/mL and 1539.76 ng·h/mL; the Cmax is 584.08 ng/mL and 715.01 ng/mL; the “MRT(0-t)” value is 62.4 min and 109 min. In series [1] (setting [3]), the “MRT(0-∞)” value was 69 min and 115 min; the t1/2 is 44.4 min and 74.4 min. In addition, in series [1] (setting [4]), the area under the curve AUC(0-inf) was found to be 644 ng·h/mL, the clearance is 52 mL/min/kg, the MRT last stood at 38.4 min and the MRT inf was 54 min. For the same molecule, in series [1] (setting [4]), the Tmax worked out at 4.98 min, the Vd was determined as 2.8 L/kg and the half-life was 37.2 min. The AUC(0-t) in series [1] (male, ICR, mouse, plasma, iv, 2 mg/kg, IV 2 mg/kg, ICR mice, Mean, read-out: AUC(0-t)) worked out at 572 ng·h/mL. Besides, the Cmax in series [1] (male, ICR, mouse, plasma, iv, 2 mg/kg, IV 2 mg/kg, ICR mice, Mean, read-out: Cmax) is 550 ng/mL. Besides, in series [1] (setting [5]), the AUC(0-inf) is 619 ng·h/mL, the clearance is 53.8 mL/min/kg, the MRT last stood at 35.4 min and the MRT inf was determined as 45 min. In series [1] (setting [5]), the Tmax is 4.8 min, the Vd came out at 2.46 L/kg and the half-life is 31.8 min. For the same molecule, in series [1] (male, ICR, mouse, plasma, iv, 2 mg/kg, IV 2 mg/kg, ICR mice, individual animal, read-out: AUC(0-t)), the AUC(0-t) worked out at 574 ng·h/mL. The maximum concentration (Cmax) in series [1] (male, ICR, mouse, plasma, iv, 2 mg/kg, IV 2 mg/kg, ICR mice, individual animal, read-out: Cmax) was found to be 606 ng/mL. In series [1] (setting [6]), the AUC(0-inf) amounted to 1150 ng·h/mL, the MRT last amounted to 96 min, the MRT inf is 103 min and the Tmax worked out at 30 min. Also, the half-life in series [1] (setting [6]) was 66.6 min. Also, the AUC(0-t) in series [1] (male, ICR, mouse, plasma, po, 5 mg/kg, PO 5 mg/kg, ICR mice, Mean, read-out: AUC(0-t)) was determined as 1130 ng·h/mL. The Cmax in series [1] (male, ICR, mouse, plasma, po, 5 mg/kg, PO 5 mg/kg, ICR mice, Mean, read-out: Cmax) turned out to be 569 ng/mL. In series [1] (setting [7]), the AUC(0-inf) amounted to 1080 ng·h/mL, the MRT last was 116 min, the MRT inf came to 125 min and the Tmax was 30 min. Besides, in series [1] (setting [7]), the half-life was 80.4 min. Further, the AUC(0-t) in series [1] (male, ICR, mouse, plasma, po, 5 mg/kg, PO 5 mg/kg, ICR mice, individual animal, read-out: AUC(0-t)) turned out to be 1060 ng·h/mL. Moreover, the Cmax in series [1] (male, ICR, mouse, plasma, po, 5 mg/kg, PO 5 mg/kg, ICR mice, individual animal, read-out: Cmax) worked out at 409 ng/mL. Also, in series [1] (male, ICR, mouse, plasma, po, 5 mg/kg, oral intragastric administration 5 mg/kg, read-out: AUC0-t), the AUC(0-t) amounted to 1130 ng·h/mL. For the same molecule, in series [1] (male, ICR, mouse, plasma, oral intragastric administration 5 mg/kg, read-out: bioavailability), the bioavailability stood at 78.8%.
